Measurements from patent US8697868B2, “8-[3-amino-piperidin-1-yl]-xanthines, their preparation and their use as pharmaceutical compositions” (Boehringer Ingelheim International GmbH, priority 2004, dated 2014).

Tested on: rats
Assay: Tolerability after oral administration in rats
Assay type: in vivo
Details: oral administration of 10 mg/kg
With `CC#CCn1c(N2CCC[C@@H](N)C2)nc2c1c(=O)n(Cc1nc3ccccc3cc1C#N)c(=O)n2C` [Example 1(30), 1-[(3-cyano-quinolin-2-yl)methyl]-3-methyl-7-(2-butyn-1-yl)-8-((R)-3-amino-piperidin-1-yl)-xanthine] the toxic side effects was “no toxic side effects could be detected”.

Target: DPP-IV (Homo sapiens (Human), UniProt P27487)
Sequence (P27487 whole entry): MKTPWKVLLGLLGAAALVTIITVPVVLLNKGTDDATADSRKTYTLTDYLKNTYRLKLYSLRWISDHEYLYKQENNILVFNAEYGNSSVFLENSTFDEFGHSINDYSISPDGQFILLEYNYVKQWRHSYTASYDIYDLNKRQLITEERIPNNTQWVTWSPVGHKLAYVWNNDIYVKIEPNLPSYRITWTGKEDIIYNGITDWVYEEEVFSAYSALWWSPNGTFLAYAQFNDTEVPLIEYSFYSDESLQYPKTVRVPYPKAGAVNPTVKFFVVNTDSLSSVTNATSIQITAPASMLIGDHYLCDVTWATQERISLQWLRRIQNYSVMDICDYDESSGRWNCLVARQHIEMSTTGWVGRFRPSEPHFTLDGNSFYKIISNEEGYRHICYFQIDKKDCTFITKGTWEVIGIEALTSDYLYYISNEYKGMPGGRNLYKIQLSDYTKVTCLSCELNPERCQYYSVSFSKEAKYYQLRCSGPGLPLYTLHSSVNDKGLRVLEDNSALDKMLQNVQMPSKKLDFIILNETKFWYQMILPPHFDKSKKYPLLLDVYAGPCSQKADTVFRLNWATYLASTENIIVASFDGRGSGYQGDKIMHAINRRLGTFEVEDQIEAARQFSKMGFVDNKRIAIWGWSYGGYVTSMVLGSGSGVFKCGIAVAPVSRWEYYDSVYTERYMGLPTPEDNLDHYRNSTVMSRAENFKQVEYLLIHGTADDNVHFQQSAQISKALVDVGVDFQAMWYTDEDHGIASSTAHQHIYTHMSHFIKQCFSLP
Assay: DPP-IV assay with Caco-2 cell extract as DPP IV source
Assay type: biochemical
Details: extract of human colon carcinoma cell line Caco-2 as DPP IV source; AFC substrate 100 μM; 60 minutes at ambient temperature; read-out: DPP IV inhibition IC50
Description: The differentiation of the cells in order to induce the DPP-IV expression was carried out in accordance with the description by Reiher et al. in an article entitled “Increased expression of intestinal cell line Caco-2” that appeared in Proc. Natl. Acad. Sci. Vol. 90, pp. 5757-5761 (1993). The cell extract was obtained from cells solubilized in a buffer (10 mM Tris HCl, 0.15 M NaCl, 0.04 t.i.u. aprotinin, 0.5% Nonidet-P40, pH 8.0) by centrifugation at 35,000 g for 30 minutes at 4° C. (to remove cell debris).
The DPP-IV assay was carried out as follows:
50 μl of substrate solution (AFC; AFC is amido-4-trifluoromethylcoumarin), final concentration 100 μM, was placed in black microtitre plates. 20 μl of assay buffer (final concentrations 50 mM Tris HCl pH 7.8, 50 mM NaCl, 1% DMSO) was pipetted therein. The reaction was started by the addition of 30 μl of solubilized Caco-2 protein (final concentration 0.14 μg of protein per well). The test substances under investigation were typically added prediluted to 20 μl, while the volume of assay buffer was then reduced accordingly. The reaction was carried out at ambient temperature, the incubation period was 60 minutes. Then the fluorescence was measured in a Victor 1420 Multilabel Counter, with the excitation wavelength at 405 nm and the emission wavelength at 535 nm. Dummy values (corresponding to 0% activity) were obtained in mixtures with no Caco-2 protein (volume replaced by assay buffer), control values (corresponding to 100% activity) were obtained in mixtures without any added substance. The potency of the test substances in question, expressed as IC50 values, were calculated from dosage/activity curves consisting of 11 measured points in each case.
`CC#CCn1c(N2CCC[C@@H](N)C2)nc2c1c(=O)n(Cc1cc(C#N)cc3ccccc13)c(=O)n2C` [1(3), 1-[(3-cyano-naphthalen-1-yl)methyl]-3-methyl-7-(2-butyn-1-yl)-8-((R)-3-amino-piperidin-1-yl)-xanthine] showed an IC50 of 6 nM.
`CC#CCn1c(N2CCC[C@@H](N)C2)nc2c1c(=O)n(Cc1nc(-c3ccccc3)nc3ccccc13)c(=O)n2C` [1(4), 1-[(2-phenyl-quinazolin-4-yl)methyl]-3-methyl-7-(2-butyn-1-yl)-8-((R)-3-amino-piperidin-1-yl)-xanthine] gave an IC50 of 9 nM.
In the case of `CC#CCn1c(N2CCC[C@@H](N)C2)nc2c1c(=O)n(Cc1cc(C#N)c3ccccc3n1)c(=O)n2C` [1(6), 1-[(4-cyano-quinolin-2-yl)methyl]-3-methyl-7-(2-butyn-1-yl)-8-((R)-3-amino-piperidin-1-yl)-xanthine], the IC50 is reported as 2 nM.
`CC#CCn1c(N2CCC[C@@H](N)C2)nc2c1c(=O)n(CC(=O)c1cccc(OC3CC3)c1)c(=O)n2C` [1(7), 1-[2-(3-cyclopropyloxy-phenyl)-2-oxo-ethyl]-3-methyl-7-(2-butyn-1-yl)-8-((R)-3-amino-piperidin-1-yl)-xanthine] showed an IC50 of 5 nM.
`CC#CCn1c(N2CCC[C@@H](N)C2)nc2c1c(=O)n(Cc1ccc3nc(C)c(C)nc3c1)c(=O)n2C` [1(12), 1-[(2,3-dimethyl-quinoxalin-6-yl)methyl]-3-methyl-7-(2-butyn-1-yl)-8-((R)-3-amino-piperidin-1-yl)-xanthine] showed an IC50 of 2 nM.
`CC#CCn1c(N2CCC[C@@H](N)C2)nc2c1c(=O)n(CC(=O)c1ccccc1-c1cccnc1)c(=O)n2C` [1(21), 1-{2-oxo-2-[2-(pyridin-3-yl)-phenyl]-ethyl}-3-methyl-7-(2-butyn-1-yl)-8-((R)-3-amino-piperidin-1-yl)-xanthine] gave an IC50 of 2 nM.
Compound `CC#CCn1c(N2CCC[C@@H](N)C2)nc2c1c(=O)n(Cc1cnc3cccnc3c1)c(=O)n2C` [1(26), 1-[([1,5]naphthyridin-3-yl)methyl]-3-methyl-7-(2-butyn-1-yl)-8-((R)-3-amino-piperidin-1-yl)-xanthine] has an IC50 of 2 nM.
In the case of `CC#CCn1c(N2CCC[C@@H](N)C2)nc2c1c(=O)n(Cc1nccc(-c3ccccc3)n1)c(=O)n2C` [1(31), 1-[(4-phenyl-pyrimidin-2-yl)methyl]-3-methyl-7-(2-butyn-1-yl)-8-((R)-3-amino-piperidin-1-yl)-xanthine], the IC50 is reported as 3 nM.
`CC#CCn1c(N2CCC[C@@H](N)C2)nc2c1c(=O)n(Cc1ccc3cncnc3c1)c(=O)n2C` [1(38), 1-[(quinazolin-7-yl)methyl]-3-methyl-7-(2-butyn-1-yl)-8-((R)-3-amino-piperidin-1-yl)-xanthine] gave an IC50 of 1 nM.
With `CC#CCn1c(N2CCC[C@@H](N)C2)nc2c1c(=O)n(Cc1ccccc1C#N)c(=O)n2C` [1(39), 1-(2-cyano-benzyl)-3-methyl-7-(2-butyn-1-yl)-8-((R)-3-amino-piperidin-1-yl)-xanthine] the IC50 was 2 nM.
Compound `CC#CCn1c(N2CCC[C@@H](N)C2)nc2c1c(=O)n(Cc1nc3ccccc3cc1C#N)c(=O)n2C` [Example 1(30), 1-[(3-cyano-quinolin-2-yl)methyl]-3-methyl-7-(2-butyn-1-yl)-8-((R)-3-amino-piperidin-1-yl)-xanthine] has an IC50 of 2 nM.
In the case of `CC#CCn1c(N2CCCC(N)C2)nc2c1c(=O)n(Cc1nc(Nc3ccccc3)c3ccccc3n1)c(=O)n2C` (stereo not shown) [Example 1, 1-[(4-phenylamino-quinazolin-2-yl)methyl]-3-methyl-7-(2-butyn-1-yl)-8-(3-amino-piperidin-1-yl)-xanthine], the IC50 is reported as 6 nM.

Tested on: not given
Assay: not given
Details: not given
Compound `CC#CCn1c(N2CCC[C@@H](N)C2)nc2c1c(=O)n(Cc1ccccc1)c(=O)n2C` [Example 1(43), 1-benzyl-3-methyl-7-(2-butyn-1-yl)-8-((R)-3-amino-piperidin-1-yl)-xanthine] has a melting point of 207 to 209 °C.
Compound `CC#CCn1c(N2CCC[C@@H](N)C2)nc2c1c(=O)n(Cc1nc(C)cc(C)n1)c(=O)n2C` [Example 1(82), 1-[(4,6-dimethyl-pyrimidin-2-yl)methyl]-3-methyl-7-(2-butyn-1-yl)-8-((R)-3-amino-piperidin-1-yl)-xanthine] has a melting point of 202 to 204 °C.
Compound `CC#CCn1c(N2CCC[C@@H](N)C2)nc2c1c(=O)n(Cc1cnccc1C#N)c(=O)n2C` [Example 1(102), 1-[(4-cyano-pyridin-3-yl)methyl]-3-methyl-7-(2-butyn-1-yl)-8-((R)-3-amino-piperidin-1-yl)-xanthine] has a melting point of 166 °C.
